Results from patent publication US8883782B2, “Spiro-tetracyclic ring compounds as beta-secretase modulators and methods of use” (Amgen Inc., priority 2010, dated 2014).
Like-named read-outs stand apart in the source and are kept apart here.

How the values were obtained:
[1] = target: Beta Secretase enzyme (BACE) (Homo sapiens, UniProt P56817); assay: In vitro enzymatic BACE FRET (fluorescence resonance energy transfer) assay; assay type: biochemical; settings: average IC50, enzyme assay; read-out: BACE 1 FRET assay
Chain of Beta Secretase enzyme (BACE) (P56817 46-501, species assumed): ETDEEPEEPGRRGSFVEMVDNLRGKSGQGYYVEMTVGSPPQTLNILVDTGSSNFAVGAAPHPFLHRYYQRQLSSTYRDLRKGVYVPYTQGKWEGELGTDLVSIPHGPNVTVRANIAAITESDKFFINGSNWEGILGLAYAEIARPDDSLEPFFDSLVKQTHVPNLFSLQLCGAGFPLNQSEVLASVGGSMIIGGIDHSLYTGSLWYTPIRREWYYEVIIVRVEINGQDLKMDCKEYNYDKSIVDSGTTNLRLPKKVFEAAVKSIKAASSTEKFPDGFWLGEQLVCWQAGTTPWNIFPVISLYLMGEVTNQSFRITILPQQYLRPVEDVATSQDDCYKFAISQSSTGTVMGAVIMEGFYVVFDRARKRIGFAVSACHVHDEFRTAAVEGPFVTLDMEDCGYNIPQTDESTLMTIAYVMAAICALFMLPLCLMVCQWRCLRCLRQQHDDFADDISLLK
Procedure, shortened: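 Buffer 0.05 M acetate pH 4.2, 10% DMSO final, 100 uM genapol (sub-CMC); start with 50 nM FRET substrate; 1 h incubation; Tris stop; fluorescence read.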

[2] = tested on: Aβ40 in conditioned medium of cells stably expressing Amyloid Precursor Protein (APP); assay: In vitro BACE cell-based assay (Aβ40 in conditioned medium, sandwich ELISA); settings: Homo sapiens, read-out: HEK cell assay
Procedure, shortened: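 The sandwich ELISA pairs pAb40 capture (3 h, 4 °C) with 6E10 detection (2 h, 4 °C) and a streptavidin-europium TRF read-out. Supernatants come from APP-expressing cells grown in 10% FBS DMEM.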

[3] = HEK293, average IC50, HEK cells

| IC50 [1] [nM] | IC50 [2, 3] [nM] | IC50 ([2]; HEK293, average IC50) [nM] | Compound |
| --- | --- | --- | --- |
| 4.2 | 78 |  | COc1nc(N2CCC(F)(F)CC2)cc2c1Oc1ccc(-c3cccnc3F)cc1[C@@]21COC(N)=N1 [Example 849, (5S)-3-(4,4-difluoro-1-piperidinyl)-7-(2-fluoro-3-pyridinyl)-1-methoxyspiro[chromeno[2,3-c]pyridine-5,4′-[1,3]oxazol]-2′-amine] |
| 0.8 |  | 6.7 | NC1=N[C@]2(CO1)c1cc(C3=CCOCC3)cnc1Oc1ccc(-c3cccnc3F)c(F)c12 [Example 346, (5R)-3-(3,6-dihydro-2H-pyran-4-yl)-6-fluoro-7-(2-fluoro-3-pyridinyl)spiro[chromeno[2,3-b]pyridine-5,4′-[1,3]oxazol]-2′-amine] |
| 0.4 | 15 |  | CC(C)(C)COc1cc2c(cn1)Oc1ccc(-c3cccnc3F)cc1[C@@]21COC(N)=N1 [Example 609, (5S)-3-(2,2-dimethylpropoxy)-7-(2-fluoro-3-pyridinyl)spiro[chromeno[2,3-c]pyridine-5,4′-[1,3]oxazol]-2′-amine] |
| 0.6 |  | 12 | NC1=N[C@@]2(CO1)c1cc(-c3cnccc3F)ccc1Oc1c(F)cc(C3=CCCOC3)cc12 [Example 1045, (4S)-2′-(5,6-dihydro-2H-pyran-3-yl)-4′-fluoro-7′-(4-fluoro-3-pyridinyl)spiro[1,3-oxazole-4,9′-xanthen]-2-amine] |
| 290 | 1700 |  | COc1cc(F)c2c(c1)[C@@]1(COC(N)=N1)c1cc(-c3cncnc3)c(F)cc1O2 [Example 555, (4R)-3′,5′-difluoro-7′-methoxy-2′-(5-pyrimidinyl)spiro[1,3-oxazole-4,9′-xanthen]-2-amine] |
| 2 |  | 2 | NC1=N[C@@]2(CO1)c1cc(-c3cccnc3F)ccc1Oc1c(F)cc(N3CC4(COC4)C3)cc12 [Example 1087, (4S)-4′-fluoro-7′-(2-fluoro-3-pyridinyl)-2′-(2-oxa-6-azaspiro[3.3]hept-6-yl)spiro[1,3-oxazole-4,9′-xanthen]-2-amine] |
| 2 |  | 338 | CC1(C#Cc2cnc3c(c2)[C@]2(CSC(N)=N2)c2cc(-c4cccc(C#N)c4F)ccc2O3)COC1 [Example 780, 3-((5S)-2′-amino-3-((3-methyl-3-oxetanyl)ethynyl)spiro[chromeno[2,3-b]pyridine-5,4′-[1,3]thiazol]-7-yl)-2-fluorobenzonitrile] |
| 0.7 |  | 3.1 | CC1(COc2cc(F)c3c(c2)[C@]2(COC(N)=N2)c2cc(-c4cncc(F)c4)ccc2O3)COC1 [Example 273, (4S)-4′-fluoro-7′-(5-fluoro-3-pyridinyl)-2′-((3-methyl-3-oxetanyl)methoxy)spiro[1,3-oxazole-4,9′-xanthen]-2-amine] |
| 4.1 | 32 |  | CC1(C#Cc2cc(F)c3c(c2)[C@]2(COC(N)=N2)c2cc(-c4ccc(F)nc4)ccc2O3)COC1 [Example 598] |
| 1.1 |  | 21 | COc1cc(F)c2c(c1)[C@]1(COC(N)=N1)c1cc(-c3cncc(C#CCO)c3)ccc1O2 [Example 820, 3-(5-((4S)-2-amino-5′-fluoro-7′-methoxyspiro[1,3-oxazole-4,9′-xanthen]-2′-yl)-3-pyridinyl)-2-propyn-1-ol] |
| 0.8 | 10 |  | CC1(C)CC(c2cnc3c(c2)[C@]2(CSC(N)=N2)c2cc(-c4cncnc4)ccc2O3)=CCO1 [Example 669, (5S)-3-(2,2-dimethyl-3,6-dihydro-2H-pyran-4-yl)-7-(5-pyrimidinyl)spiro[chromeno[2,3-b]pyridine-5,4′-[1,3]thiazol]-2′-amine] |
| 0.4 | 11.1 |  | NC1=N[C@@]2(CO1)c1cc(-c3cccnc3F)ccc1Oc1cnc(C3=CCCCC3)cc12 [Example 386, (5S)-3-(1-cyclohexen-1-yl)-7-(2-fluoro-3-pyridinyl)spiro[chromeno[2,3-c]pyridine-5,4′-[1,3]oxazol]-2′-amine] |
| 6.3 |  | 19.7 | C[C@@H]1CN(c2cc(F)c3c(c2)[C@]2(COC(N)=N2)c2cc(-c4cnccn4)ccc2O3)C[C@H](C)O1 [Example 94, (S)-2′-((2R,6S)-2,6-dimethylmorpholino)-4′-fluoro-7′-(pyrazin-2-yl)-5H-spiro[oxazole-4,9′-xanthen]-2-amine] |
| 6.1 | 2950 |  | NC1=NC2(CS1)c1cc(-c3cccnc3F)ccc1Oc1c2cc(Cl)nc1F (centres unmarked) [Example 611, 3-chloro-1-fluoro-7-(2-fluoro-3-pyridinyl)spiro[chromeno[2,3-c]pyridine-5,4′-[1,3]thiazol]-2′-amine] |
| 2400 |  | > 10000 | COCC1SC(N)=N[C@@]12c1cc(-c3cccnc3F)ccc1Oc1c(F)cc(OC)cc12 (stereo partly drawn) [Example 1090, (4R)-4′-fluoro-7′-(2-fluoro-3-pyridinyl)-2′-methoxy-5-(methoxymethyl)spiro[1,3-thiazole-4,9′-xanthen]-2-amine] |
| 30.8 |  | 125 | N#Cc1cccc(COc2ccc3c(c2)[C@@]2(COC(N)=N2)c2cc(-c4cccnc4)cnc2O3)c1 [Example 984, 3-((((5S)-2′-amino-3-(3-pyridinyl)spiro[chromeno[2,3-b]pyridine-5,4′-[1,3]oxazol]-7-yl)oxy)methyl)benzonitrile] |
| 17.7 | 165 |  | NC1=N[C@@]2(CO1)c1cc(-c3cc(F)cnc3F)ccc1Oc1cnc(C3=CCOCC3)cc12 [Example 600, (5S)-7-(2,5-difluoro-3-pyridinyl)-3-(3,6-dihydro-2H-pyran-4-yl)spiro[chromeno[2,3-c]pyridine-5,4′-[1,3]oxazol]-2′-amine] |
| 8.8 |  | 33.6 | CC1(COc2cc3c(cc2F)Oc2ccc(-c4cncc(C#N)c4)cc2[C@@]32COC(N)=N2)COC1 [Example 330, 5-((4S)-2-amino-6′-fluoro-7′-((3-methyl-3-oxetanyl)methoxy)spiro[1,3-oxazole-4,9′-xanthen]-2′-yl)-3-pyridinecarbonitrile] |
| 183 | 3000 |  | CC1(COc2cc(F)c3c(c2)[C@@]2(CSC(N)=N2)c2cc(-c4cccnc4)c(F)cc2O3)COC1 [Example 877, (4R)-3′,5′-difluoro-7′-((3-methyl-3-oxetanyl)methoxy)-2′-(3-pyridinyl)spiro[1,3-thiazole-4,9′-xanthen]-2-amine] |
| 1 |  | 8.1 | COc1cncc(-c2ccc3c(c2)[C@@]2(COC(N)=N2)c2cc(OCC(C)(C)C#N)cc(F)c2O3)c1 [Example 264, 3-(((4S)-2-amino-4′-fluoro-7′-(5-methoxy-3-pyridinyl)spiro[1,3-oxazole-4,9′-xanthen]-2′-yl)oxy)-2,2-dimethylpropanenitrile] |
| 0.3 | 32 |  | N#Cc1cccc(-c2ccc3c(c2)[C@@]2(COC(N)=N2)c2cc(N4CCC(F)(F)CC4)nc(F)c2O3)c1 [Example 923, 3-((5S)-2′-amino-3-(4,4-difluoro-1-piperidinyl)-1-fluorospiro[chromeno[2,3-c]pyridine-5,4′-[1,3]oxazol]-7-yl)benzonitrile] |
| 0.5 |  | 10 | NC1=N[C@@]2(CS1)c1cc(-c3cccnc3)ccc1Oc1c(F)cc(C3=CCCOC3)cc12 [Example 795, (4S)-2′-(5,6-dihydro-2H-pyran-3-yl)-4′-fluoro-7′-(3-pyridinyl)spiro[1,3-thiazole-4,9′-xanthen]-2-amine] |
